We go through ten compounds from patent US12486280B2, “CDK inhibitors and uses thereof” (California Institute of Technology, priority 2018, dated 2025).

Values after ≈ are worked out from the molar mass of the structure shown. Read-outs that look alike come from different tables or passages of the source.

By Ki is commonly meant a measure of affinity in units of concentration, obtained from inhibition or displacement. Broadly, the half-life is the time in which the quantity being followed falls by half. A higher half-life goes with slow loss. One may read the Papp A→B as the apparent permeability from the apical to the basolateral side of a cell layer.

Data set [1] can be described thus: Compound Solubility Assay (kinetic solubility). The class given is physicochemical. As to the method: The relative kinetic solubility of each compound was determined at both low (1.2) and neutral (7.4) pH. Compounds were prepared at 10 mM stocks. […] Compounds were allowed to shake at room temperature for 24 hours in 50 mM phosphate buffer pH 7.4, or in SGF buffer pH 1.2 at 37° C. for 24 hours.

In the next data set the target is CDK4 (Homo sapiens (Human), UniProt P11802). Briefly: Cdk4 and 6 Enzymatic Inhibition Assay (radiometric 33PanQinase, Ki determination). The class given is biochemical. Summed up: (§1)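 Radiometric 33PanQinase assay in 70 mM HEPES-NaOH pH 7.5 with 3 mM MgCl2, 3 mM MnCl2, [γ-33P]-ATP, kinase and substrate; 60 min at 30° C, 1% DMSO final. Ten final concentrations from 2×10^−6 M to 6×10^−11 M; 33Pi incorporation counted by scintillation after H3PO4 stop.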
Chain of CDK4 (P11802 whole entry): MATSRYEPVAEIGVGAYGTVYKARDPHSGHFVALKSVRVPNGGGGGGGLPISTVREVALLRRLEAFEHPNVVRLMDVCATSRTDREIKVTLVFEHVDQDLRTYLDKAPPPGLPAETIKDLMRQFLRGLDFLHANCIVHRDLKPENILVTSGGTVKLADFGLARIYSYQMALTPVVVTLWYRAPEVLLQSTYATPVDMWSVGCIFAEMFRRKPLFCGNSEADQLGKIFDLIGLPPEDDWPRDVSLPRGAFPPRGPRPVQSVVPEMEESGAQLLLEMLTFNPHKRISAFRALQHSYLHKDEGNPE
Chain of CDK4 (P24385 whole entry partner): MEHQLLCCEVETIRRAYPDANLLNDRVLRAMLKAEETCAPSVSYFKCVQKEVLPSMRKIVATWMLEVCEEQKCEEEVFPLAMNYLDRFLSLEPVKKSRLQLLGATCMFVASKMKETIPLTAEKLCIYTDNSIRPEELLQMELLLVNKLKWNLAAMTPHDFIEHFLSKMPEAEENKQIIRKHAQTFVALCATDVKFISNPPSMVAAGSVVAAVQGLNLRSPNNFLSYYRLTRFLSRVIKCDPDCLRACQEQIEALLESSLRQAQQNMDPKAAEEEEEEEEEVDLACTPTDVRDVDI

The next data set addresses CDK6 (Homo sapiens (Human), UniProt Q00534). Described as above. The class given is biochemical. A digest of the protocol:
as §1

Data set [2] is described as follows: Measurement of Compound Metabolic Stability in hepatocytes.
Data set [3] deals with drug-resistant cell lines of Table 2 (NCI-H1437, OV207, HCC1806, NCI-H2172). Briefly: Cell Line Growth Retardation Assay, resistant cohort. The class given is cell-based, human. The note with it: Homo sapiens, […], geometric mean over resistant cohort; 6 days growth; read-out: AvgResIC50. A digest of the protocol: (§2)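 Cells rested 24 h, then exposed 6 days to compound at 10, 2, 0.4, 0.08, 0.016 and 0.0032 μM; counted by imaging on day 0 and day 6. Growth inhibition as ratio of population doublings versus vehicle; IC50 from curve fits, cohort values as geometric means.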

Another data set deals with hERG potassium channels (Homo sapiens (Human), UniProt Q12809). Briefly: hERG Inhibition Assay (QPatch automated patch clamp, CHO cells). The conditions noted are these: percent of control current.
Chain of hERG potassium channels (Q12809 whole entry): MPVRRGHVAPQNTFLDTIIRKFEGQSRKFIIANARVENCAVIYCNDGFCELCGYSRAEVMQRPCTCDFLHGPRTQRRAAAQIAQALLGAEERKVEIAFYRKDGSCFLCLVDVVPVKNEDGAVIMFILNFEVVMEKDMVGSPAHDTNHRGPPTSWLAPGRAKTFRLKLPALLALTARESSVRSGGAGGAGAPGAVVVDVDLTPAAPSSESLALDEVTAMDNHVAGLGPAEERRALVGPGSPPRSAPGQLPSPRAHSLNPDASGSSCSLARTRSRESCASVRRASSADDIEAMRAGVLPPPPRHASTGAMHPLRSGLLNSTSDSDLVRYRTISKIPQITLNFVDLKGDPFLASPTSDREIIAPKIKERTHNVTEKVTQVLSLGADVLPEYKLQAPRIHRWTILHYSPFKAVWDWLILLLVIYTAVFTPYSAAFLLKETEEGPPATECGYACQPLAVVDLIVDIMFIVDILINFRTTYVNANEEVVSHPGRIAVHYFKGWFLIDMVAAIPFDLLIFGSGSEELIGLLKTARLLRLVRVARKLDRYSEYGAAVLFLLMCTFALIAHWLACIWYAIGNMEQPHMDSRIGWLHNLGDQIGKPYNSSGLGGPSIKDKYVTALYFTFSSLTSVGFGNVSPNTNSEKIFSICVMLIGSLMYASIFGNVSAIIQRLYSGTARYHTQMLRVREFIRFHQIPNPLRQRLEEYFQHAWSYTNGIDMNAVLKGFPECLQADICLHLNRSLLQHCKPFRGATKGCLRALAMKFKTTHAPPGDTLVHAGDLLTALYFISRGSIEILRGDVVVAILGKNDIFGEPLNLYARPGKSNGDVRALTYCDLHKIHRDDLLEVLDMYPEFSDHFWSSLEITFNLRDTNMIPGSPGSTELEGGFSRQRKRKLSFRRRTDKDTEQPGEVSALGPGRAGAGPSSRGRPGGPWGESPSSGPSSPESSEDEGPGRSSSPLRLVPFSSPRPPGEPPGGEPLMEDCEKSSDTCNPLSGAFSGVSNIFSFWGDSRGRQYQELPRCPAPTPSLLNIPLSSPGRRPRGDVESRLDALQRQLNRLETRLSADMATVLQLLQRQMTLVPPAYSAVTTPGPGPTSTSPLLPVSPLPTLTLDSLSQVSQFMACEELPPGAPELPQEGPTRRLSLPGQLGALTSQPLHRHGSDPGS
The test system of data set [4] is CYP isozymes (IC50s averaged over the isozymes). Description: CYP Enzymatic Inhibition Assay in human liver microsomes. For orientation: Liver microsomes are vesicles of endoplasmic reticulum, rich in cytochrome P450 enzymes.
For data set [5], the system named is drug-sensitive cell lines of Table 2 (EFM-19, MDA-MB-453, T-47D, ZR-75-1, NCI-H441, OVTOKO, NCI-H1838). Description: Cell Line Growth Retardation Assay, sensitive cohort. The class given is cell-based, human. The conditions noted are these: for IC50: Homo sapiens, geometric mean over sensitive cohort, 6 days growth, read-out: AvgSensIC50; for Ther Window: average IC50 drug-resistant group divided by average IC50 drug-sensitive group. Summed up:
as §2

The nature of data set [6]: Caco-2 Assay (Papp A to B). The conditions noted are these: human, Caco-2, pH 7.4.
[7] abbreviates: 50 mM phosphate buffer, pH 7.4, aqueous buffer, kinetic from dmso stock, read-out: KS7.
Where [8] appears, read: simulated gastric fluid, kinetic from dmso stock, kinetic solubility, SGF buffer pH 1.2, 37° C., 24 hours, read-out: KS1.

Chain of CDK6 (Q00534 whole entry): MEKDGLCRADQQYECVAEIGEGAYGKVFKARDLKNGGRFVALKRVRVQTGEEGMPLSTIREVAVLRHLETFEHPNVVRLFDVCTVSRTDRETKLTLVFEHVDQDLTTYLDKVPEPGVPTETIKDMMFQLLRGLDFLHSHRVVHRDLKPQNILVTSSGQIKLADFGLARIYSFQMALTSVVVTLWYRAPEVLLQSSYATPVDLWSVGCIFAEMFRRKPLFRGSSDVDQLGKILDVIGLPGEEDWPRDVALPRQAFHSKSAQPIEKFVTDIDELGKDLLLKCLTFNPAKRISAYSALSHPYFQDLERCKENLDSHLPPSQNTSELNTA
Chain of CDK6 (P24385 whole entry partner): as the sequence (P24385 whole entry partner) above
Method for hERG potassium channels: Effects of compounds on hERG potassium channel conductance was assessed using the automated patch clamp method QPatch^HTX. Compounds were prepared at 10 mM stocks. CHO cells stably expressing hERG potassium channels were used for this assay. Cells were cultured in a humidified and air-controlled 5% CO2) incubator at 37° C. Compound stocks and the positive control Amitriptyline were dissolved in 100% DMSO to make various solution concentrations. These solutions were further diluted into extracellular solution to achieve final concentrations for testing. The final DMSO concentration in extracellular solution was 0.30%. The hERG QPatch^HTX assay was conducted at room temperature.
The following voltage command protocol was used: • From the holding potential of −80 mV, the voltage was first stepped to −50 mV for 80 ms for leak subtraction, and then stepped to +20 mV for 4,800 ms to open hERG channels. • After which, the voltage was stepped back down to −50 mV for 5,000 ms, causing a “rebound” or tail current, which was measured and collected for data analysis. • Finally, the voltage was stepped back to the holding potential of −80 mV for 3,100 ms.
For each experiment, three additions of 5 μL of the vehicle were applied, followed by 30 runs of the voltage command protocol for a baseline period. Then, the ascending doses of each compound were added with three repetitions (5 μL of compound each time).

Turning to `CCN(CC)CCC1(C)CN(Cc2ccc(Nc3ncc(F)c(-c4cc(F)c5nc(C)n(C(C)C)c5c4)n3)nc2)CCO1` (stereo in doubt) [Compound A3, (S)—N-(5-((2-(2-(diethylamino)ethyl)-2-methylmorpholino)methyl)pyridin-2-yl)-5-fluoro-4-(4-fluoro-1-isopropyl-2-methyl-1H-benzo[d]imidazol-6-yl)pyrimidin-2-amine], the solubility kinetic at 24 h is 163 µM (≈ 96.6 µg/mL) in data set [1] (setting [7]) and 200 µM (≈ 119 µg/mL) in [1] (setting [8]). Besides, the results for the Ki on CDK4 and on CDK6 were 2.04 nM and 7.39 nM, respectively. Also, the half-life at 1 μM in [2] amounted to 130 min. The IC50 amounted to 1000 nM in data set [3] and 70 nM in data set [5]. For the same compound, the hERG on hERG potassium channels turned out to be 26.68%. Besides, the IC50 at 10 min in data set [4] worked out at 37200 nM. For the same compound, the “Ther Window” value in [5] stood at 13.77. In addition, the Papp A→B at 2 h, 2 μM in [6] came to 0.05 ×10⁻⁶ cm/s.

Consider `CC(=O)N(C)CC[C@]1(C)CN(Cc2ccc(Nc3ncc(F)c(-c4cc(F)c5nc(C)n(C(C)C)c5c4)n3)nc2)CCO1` [Compound A8, (R)—N-(2-(4-((6-((5-fluoro-4-(4-fluoro-1-isopropyl-2-methyl-1H-benzo[d]imidazol-6-yl)pyrimidin-2-yl)amino)pyridin-3-yl)methyl)-2-methylmorpholin-2-yl)ethyl)-N-methylacetamide], for which the solubility kinetic at 24 h was 128 µM (≈ 76.1 µg/mL) in data set [1] (setting [7]) and 200 µM (≈ 119 µg/mL) in [1] (setting [8]). Besides, the Ki on CDK4 came to 1.76 nM; at CDK6, 11.3 nM. This compound also returned a half-life at 1 μM in [2] of 4.24 min. Moreover, the figures for the IC50 in [3] and in data set [5] were 970 nM and 170 nM, respectively. Also, at hERG potassium channels, the hERG was found to be 11.87%. The same compound showed an IC50 at 10 min in data set [4] of 30900 nM. The “Ther Window” value in [5] turned out to be 5.64. In addition, the Papp A→B at 2 h, 2 μM in [6] was found to be 2.35 ×10⁻⁶ cm/s.

`Cc1nc2c(F)cc(-c3nc(Nc4ccc(CN5CCO[C@](C)(CCNCC(F)(F)F)C5)cn4)ncc3F)cc2n1C(C)C` [Compound A9, (R)-5-fluoro-4-(4-fluoro-1-isopropyl-2-methyl-1H-benzo[d]imidazol-6-yl)-N-(5-((2-methyl-2-(2-((2,2,2-trifluoroethyl)amino)ethyl)morpholino)methyl)pyridin-2-yl)pyrimidin-2-amine]: the solubility kinetic at 24 h in data set [1] (setting [7]) is 1 µM (≈ 0.619 µg/mL); in [1] (setting [8]), 200 µM (≈ 124 µg/mL). The Ki on CDK4 worked out at 2.54 nM; on CDK6, 14.5 nM. In [2], this compound showed a half-life at 1 μM of 15.3 min. Besides, the IC50 was determined as 1000 nM in data set [3] and 120 nM in [5]. The compound also gave a hERG on hERG potassium channels of 21.86%. The compound further came in with an IC50 at 10 min in [4] of 26100 nM. For the same compound, the “Ther Window” value in [5] was 8.59. The Papp A→B at 2 h, 2 μM in data set [6] was found to be 2.14 ×10⁻⁶ cm/s.

Take `Cc1nc2c(F)cc(-c3nc(Nc4ccc(CN5CCO[C@](C)(CCN6CC(F)(F)C6)C5)cn4)ncc3F)cc2n1C(C)C` [Compound A12, (R)—N-(5-((2-(2-(3,3-difluoroazetidin-1-yl)ethyl)-2-methylmorpholino)methyl)pyridin-2-yl)-5-fluoro-4-(4-fluoro-1-isopropyl-2-methyl-1H-benzo[d]imidazol-6-yl)pyrimidin-2-amine]: the solubility kinetic at 24 h in [1] (setting [7]) turned out to be 1 µM (≈ 0.613 µg/mL); in data set [1] (kinetic solubility, SGF buffer pH 1.2, 37° C., 24 hours, read-out: KS1), 200.00 µM (≈ 123 µg/mL). Also, the Ki on CDK4 was 2.18 nM; at CDK6, 12.8 nM. Further, the half-life at 1 μM in data set [2] was 13.1 min. Besides, the IC50 in [3] stood at 860 nM; in [5] it was 110 nM. The hERG on hERG potassium channels was found to be 19.54%. Besides, the IC50 at 10 min in [4] amounted to 21600 nM. Further, the “Ther Window” value in data set [5] turned out to be 8.17. The same compound showed a Papp A→B at 2 h, 2 μM in data set [6] of 2.62 ×10⁻⁶ cm/s.

Regarding `Cc1nc2c(F)cc(-c3nc(Nc4ccc(CN5CCO[C@](C)(CCN6CCOCC6)C5)cn4)ncc3F)cc2n1C(C)C` [Compound A19, (R)-5-fluoro-4-(4-fluoro-1-isopropyl-2-methyl-1H-benzo[d]imidazol-6-yl)-N-(5-((2-methyl-2-(2-morpholinoethyl)morpholino)methyl)pyridin-2-yl)pyrimidin-2-amine], the solubility kinetic at 24 h in [1] (setting [7]) was 139 µM (≈ 84.2 µg/mL); in [1] (setting [8]) it was 200 µM (≈ 121 µg/mL). Besides, the Ki amounted to 1.37 nM at CDK4 and 7.07 nM at CDK6. The half-life at 1 μM in data set [2] was determined as 16.8 min. Moreover, the figures for the IC50 in data set [3] and in data set [5] were 970 nM and 190 nM, respectively. This compound had a hERG on hERG potassium channels of 18.14%. The compound further showed an IC50 at 10 min in data set [4] of 29000 nM. In [5], the “Ther Window” value is listed as 5.12. This compound displayed a Papp A→B at 2 h, 2 μM in data set [6] of 0.91 ×10⁻⁶ cm/s.

Turning to `CC[C@@]1(CCN(C)C)CN(Cc2ccc(Nc3ncc(F)c(-c4cc(F)c5nc(C)n(C(C)C)c5c4)n3)nc2)CCO1` [Compound A20, (R)—N-(5-((2-(2-(dimethylamino)ethyl)-2-ethylmorpholino)methyl)pyridin-2-yl)-5-fluoro-4-(4-fluoro-1-isopropyl-2-methyl-1H-benzo[d]imidazol-6-yl)pyrimidin-2-amine], the values for the Ki at CDK4 and on CDK6 were 0.55 nM and 3.69 nM, respectively. The half-life at 1 μM in [2] was found to be 101 min. Also, the IC50 in [3] is 1000 nM; in data set [5], 80 nM. The same compound yielded a hERG at hERG potassium channels of 32.36%. Besides, the IC50 at 10 min in [4] came to 24800 nM. Besides, the “Ther Window” value in data set [5] is listed as 12.21. The compound further had a Papp A→B at 2 h, 2 μM in [6] of 0.07 ×10⁻⁶ cm/s.

Take `CNCC[C@@]1(C)CN(Cc2ccc(Nc3ncc(F)c(-c4cc(F)c5nc(C)n(C(C)C)c5c4)n3)nc2)CCO1` [Compound A22, (S)-5-fluoro-4-(4-fluoro-1-isopropyl-2-methyl-1H-benzo[d]imidazol-6-yl)-N-(5-((2-methyl-2-(2-(methylamino)ethyl)morpholino)methyl)pyridin-2-yl)pyrimidin-2-amine]: the figures for the solubility kinetic at 24 h in data set [1] (setting [7]) and in data set [1] (setting [8]) were 15.6 µM (≈ 8.57 µg/mL) and 200 µM (≈ 110 µg/mL), respectively. Further, the Ki on CDK4 came to 0.52 nM; on CDK6 it was 3.55 nM. The compound also gave a half-life at 1 μM in data set [2] of 202 min. The IC50 was found to be 870 nM in data set [3] and 80 nM in data set [5]. Also, the hERG at hERG potassium channels was 15.58%. For the same compound, the IC50 at 10 min in [4] came to 35800 nM. Further, the “Ther Window” value in data set [5] is on record as 10.57. For the same compound, the Papp A→B at 2 h, 2 μM in data set [6] worked out at 0.05 ×10⁻⁶ cm/s.

As to `Cc1nc2c(F)cc(-c3nc(Nc4ccc(CN5CCO[C@](C)(C[C@@H](C)N(C)C)C5)cn4)ncc3F)cc2n1C(C)C` [Compound A26], the solubility kinetic at 24 h in data set [1] (setting [7]) was 140 µM (≈ 81.2 µg/mL); in [1] (setting [8]) it was 200 µM (≈ 116 µg/mL). Also, the Ki on CDK4 was 1.73 nM; on CDK6, 8.63 nM. The compound further yielded a half-life at 1 μM in data set [2] of 89.4 min. In addition, the IC50 in data set [3] came to 770 nM; in data set [5] it was 130 nM. The compound further came in with a hERG on hERG potassium channels of 39.08%. Besides, in [4], the IC50 at 10 min turned out to be 51500 nM. The “Ther Window” value in [5] turned out to be 6.10. Also, the apical-to-basolateral permeability (Papp A→B) at 2 h, 2 μM in data set [6] turned out to be 0.03 ×10⁻⁶ cm/s.

In the case of `Cc1nc2c(F)cc(-c3nc(Nc4ccc(CN5CCO[C@](C)(C[C@H](C)N(C)C)C5)cn4)ncc3F)cc2n1C(C)C` [Compound A27], the solubility kinetic at 24 h was 107 µM (≈ 61.9 µg/mL) in data set [1] (setting [7]) and 200 µM (≈ 116 µg/mL) in data set [1] (setting [8]). In addition, the Ki at CDK4 is 1.21 nM; at CDK6 it was 6.57 nM. Also, in data set [2], the half-life at 1 μM was found to be 71.2 min. The IC50 in data set [3] was 900 nM; in [5] it was 80 nM. In addition, the hERG on hERG potassium channels came to 24.78%. In data set [4], this compound came in with an IC50 at 10 min of 25800 nM. Moreover, the “Ther Window” value in [5] came out at 11.50. In addition, the Papp A→B at 2 h, 2 μM in [6] worked out at 0.06 ×10⁻⁶ cm/s.

For the compound `Cc1nc2c(F)cc(-c3nc(Nc4ccc(CN5CCO[C@](C)(CCN(C)CC(F)F)C5)cn4)ncc3F)cc2n1C(C)C` [Compound A29, (R)—N-(5-((2-(2-((2,2-difluoroethyl)(methyl)amino)ethyl)-2-methylmorpholino)methyl)pyridin-2-yl)-5-fluoro-4-(4-fluoro-1-isopropyl-2-methyl-1H-benzo[d]imidazol-6-yl)pyrimidin-2-amine], the Ki is 1.8 nM on CDK4 and 10.5 nM at CDK6. In addition, in [2], the half-life at 1 μM came out at 5.84 min. Besides, the IC50 in data set [3] came out at 890 nM; in [5], 170 nM. This compound also displayed a hERG on hERG potassium channels of 25.45%. Besides, the IC50 at 10 min in [4] worked out at 16400 nM. Besides, in data set [5], the “Ther Window” value is 5.36. The compound further gave a Papp A→B at 2 h, 2 μM in [6] of 1.95 ×10⁻⁶ cm/s.
